A melting point compilation (Tetko et al.; mined from patent text by program, amines drawn as free bases though some values may be those of a salt)

melting point [°C]	Compound
111 to 113	CCN(CC)C(=O)c1cc(-c2ccccc2)c2ccccc2c1-c1ccccc1
198 to 200	Cc1ccccc1C(=O)Nc1ccc(C(=O)N2CCCC(N)c3ccccc32)cc1 (stereo unspecified)
194 to 195	O=C(O)CCc1oc(-n2ccnc2)nc1-c1ccc(Cl)cc1
285 to 288	CCCCCCCNC(=O)Nc1ccccc1C(=O)NCCSc1nc(-c2ccccc2)c(-c2ccccc2)[nH]1
124	COc1ccc(C2=C(C#N)C(c3ccccc3Cl)c3c[nH]nc3N2)cc1 (stereo unspecified)
140 to 142	CCOC=C1C(=S)c2cc(C)ccc2OC1c1ccccc1 (stereo unspecified)
153	COc1ccc(C(=O)c2c(-c3ccccc3)oc3ccc([N+](=O)[O-])cc23)cc1
111 to 115	CN(CCNC(=O)NCCCOc1cccc(CN2CCCCC2)c1)CCC(c1ccc(F)cc1)c1ccccn1 (stereo unspecified)
192 to 195	O=C(Cc1ccc(C(=O)O)cc1)C(=O)c1ccccc1
243	Cc1ccc(-c2cc(C(=O)C=Cc3ccc(C(=O)O)cc3)cc(C(C)(C)C)c2OCC(C)C)cc1
170 to 171	CCOC(=O)c1c(CI)nc2cc(OC)c(OC)cc2c1-c1ccc(OC)c(OC)c1
83 to 85	C[C@@H](N1CCN(c2ccc(-n3cnn(Cc4ccc(OCC(F)(F)C(F)F)cc4)c3=O)cc2)CC1)[C@](O)(Cn1cncn1)c1ccc(F)cc1F
169 to 170	COc1ccc(CSc2nc(O)cc(C(F)(F)F)n2)cc1
206 to 207	OC(Cc1nnccc1-c1c(-c2ccccc2)nn2ccccc12)C(Cl)(Cl)Cl (stereo unspecified)
168 to 171	NNC(=O)c1ccc(OCc2ccccc2)c(Cl)c1
217 to 219	Cc1cc(Nc2c(C#N)cnc3cc(-c4csc(CN5CCOCC5)c4)ccc23)ccc1OCc1ccccn1
231 to 233	CS(=O)(=O)c1ccc(OC(Cc2ccc(OCCNC(=O)c3ccc(-c4ccccn4)cc3)cc2)C(=O)O)cc1 (stereo unspecified)

melting point [°C]	Compound
188 to 190	COc1ccc(-c2nc(S(=O)c3ccccc3)[nH]c2-c2ccc(OC)cc2)cc1 (stereo unspecified)
30.5 to 32	C=CCOc1ccc(OC)c2ccccc12
217	Clc1ccc(-c2cc(-c3cccs3)[nH]n2)cc1
355 to 357	COc1ccc(-n2c(=O)[nH]c3c(C(N)=O)nc(-c4cccc(O)c4)nc32)c(C)c1
208 to 210	CCCc1nn(C)c2c(-c3ccc(S(C)(=O)=O)cc3)nc(-c3ccc(F)cc3)nc12
122 to 124	Cn1c(S(=O)(=O)C(F)(F)C(F)F)nc(-c2ccc(F)cc2)c1-c1ccc(F)cc1
180	COc1ccccc1C(=O)c1cccc(C#N)c1
205 to 206	CCNc1cc(Oc2ccc(NC(=O)NC3CC3c3ccccc3)cc2)ncn1 (stereo unspecified)
230	COc1cc(-c2cc3ccccc3[nH]2)cc(OC)c1O
48 to 53	CC(COc1ccc(CC2SC(=O)NC2=O)cc1)N1CC(COc2cccc(Cl)c2)OC1=O (stereo unspecified)
202 to 204	Cc1ccc(-c2ccc(C(=O)Nc3cc4ncc(CN5CCCC5)cc4cc3F)cc2)cc1
270 to 272	CCN1C(=O)C(=CC=C2C=C(c3ccccc3)C=C3N2c2ccccc2C3(C)C)SC1=S
60	Nc1cccc(-c2ccc(CCN3CCN(C(=O)Nc4ccccc4)CC3)cc2)n1
182	Cc1c(C(=O)Nc2ccc(N3CCC(O)CC3)c(C#N)c2)cnn1-c1ccccc1
146 to 148	CCCCOc1nc2cccc(C(=O)OC)c2n1Cc1ccc(-c2ccccc2-c2nnn[nH]2)cc1
144 to 145	O=C(O)COc1cccc2c1CCC(Cn1nc(C(c3ccccc3)c3ccccc3)ccc1=O)C2 (stereo unspecified)
176 to 178	Cc1ccc(-c2ccc(C(CCC(=O)O)=NO)cc2)cc1

The remaining lines, values behind:

Compound	melting point [°C]
Cc1c(F)c(N2CC[C@@H](C(C)(C)N)C2)cc2c1c(=O)c(C(=O)O)cn2-c1ccc(F)cc1F	156 to 158
O=C1c2cccc3cccc(c23)N1CCCl	136
C=Cc1ccc(OC)c(OC)c1[N+](=O)[O-]	140 to 141
O=C1c2ccccc2C(O)N1CCCN1CCN(c2ccc(Cl)cc2)CC1 (stereo unspecified)	173
CCONC(=O)c1nc(-c2ccc(Cl)c(OC)c2F)cc(N)c1Cl	192 to 195
O=S1(=O)N=C(NCC2CC2)Nc2ccc(C(F)(F)F)cc21	266 to 268
CC1(C)CC(Cc2ccc(CC3CC(C)(C)N(Cc4ccccc4)C(C)(C)C3)cc2)CC(C)(C)N1Cc1ccccc1	207 to 208
COc1ccc(N(C=C(C#N)C#N)CCC#N)cc1	175 to 177
O=[N+]([O-])c1ccc(-c2ccc(-c3cn([C@H]4CN5CCC4CC5)nn3)s2)cn1	160
C=CCN1CC(c2ccc(N)cc2F)CCS1(=O)=O (stereo unspecified)	96
Cn1c(-c2ccccc2F)nnc1S(C)=O (stereo unspecified)	95 to 97
CCOC(=O)C(=O)CC(=O)c1cn(Cc2ccc(F)cc2)c2c(F)cccc2c1=O	179 to 180
CCc1ccc2c(CC(=O)O)c(C(=O)c3cc(C)ccn3)[nH]c2c1	204 to 207
CNC(=O)c1ccc(-c2ccc3nnn(Cc4c(F)ccc(F)c4Cl)c3n2)cc1F	213 to 215
Cn1c(=O)[nH]c(=O)n(-c2ccc(F)cc2Cl)c1=O	225 to 228
Cc1ccc(C)c2c1Cc1c(O)cccc1C2=O	172 to 178
COCC1CN(Cc2cc(OC)c(OC)c(OC)c2)CCN1C(=O)c1cn2ccccc2n1 (stereo unspecified)	129 to 130
Cc1cc2ccc(CCCCCN3CCN(c4cccc(Cl)c4Cl)CC3)nc2[nH]c1=O	157 to 158
Cc1cc(Cl)cc2c1NS(=O)(=O)N(C(C)C)C2=O	142 to 144
Cc1nnsc1C(=O)Nc1ccc(-n2nc(C(F)(F)F)cc2C)cc1	51 to 53
Cc1ccc(C(=O)N[C@H](CSCC(=O)OC(C)(C)C)CC(C)C)s1	81 to 83

Compound	melting point [°C]
CCCCc1nc2c(N)nc(C)c(C)c2n1NC1CCCCC1	160 to 162
CCCCCCC(CCCn1c(CCC)nc2c(N)nc3ccccc3c21)=NO	113 to 115
CC(C)(C)OC(=O)N1CCN(c2ccc3oc(C(N)=O)cc3c2)CC1	198 to 200
O=[N+]([O-])C1=C2N(Cc3cnc(Cl)s3)CCN2C2CCC1O2 (stereo unspecified)	152
C=CCN(CC=C)Cc1csc(-c2ncn3c2CN(C)C(=O)c2cc(F)ccc2-3)n1	125 to 127
COC(=O)c1sc2nc(C(C)C)ccc2c1O	80 to 81
CCCCOC(=O)[C@H]1CN(c2ccc(C3CCSCC3)cc2)C(=O)O1	94 to 96
CC(=O)n1cc(Cl)c(-c2cccc(Cl)c2)c1	88 to 90
CN(C)C1CCN(S(=O)(=O)c2cc(C#N)ccc2Sc2cc(Cl)ccc2Cl)CC1	140 to 143
Cc1noc2ncnc(NCCC(C)C)c12	133
CC(C)(C)c1cc(NC(=O)c2cccc(C#N)c2)cc(C(C)(C)C)c1O	219 to 222
OCC1OC(n2cc(Cc3ccc(C4CC4)cc3)c3c(F)cccc32)C(O)C(O)C1O (stereo unspecified)	110 to 112
O=C1COc2ccc(Br)cc2C(=O)C1	110 to 112
CC(=O)Nc1ccc(S(=O)(=O)NCc2cc3c(ccc4cnn(C[C@H](C)N)c43)o2)cc1	80 to 85
COC(=O)C(C)(C)CCCOc1c(C)cc(OC(=O)C(C)(C)C)c(C)c1C	46 to 47
Cc1cc(-c2cc(Cl)n(C)n2)c(C)[nH]1	59 to 61
CC(C)COc1ccc(N)cc1C#N	88 to 93
COC=C(C(=O)OC)c1c(OC)ncnc1Oc1cccc(C)c1	107
O=C(Cl)c1cc(Cl)c(Cl)c(Cl)n1	60 to 62
CC(C#Cc1ccc(C=Cc2ccccc2)o1)N(O)C(N)=O (stereo unspecified)	168
O=C(O)CCCc1cc2nc(Cl)ccc2n1S(=O)(=O)c1ccc2oncc2c1	226

Compound	melting point [°C]
O=C(CCCN1CCCCC1)c1ccc2oc3ccc(C(=O)CCCN4CCCCC4)cc3c2c1	70 to 71
CCc1ccc2c(c1)C(Cl)Cc1ccc(F)cc1S2 (stereo unspecified)	68 to 70
CCC(Oc1ccc(C(C)(C)CC)cc1C(C)(C)CC)C(=O)Nc1ccc(Cl)c(NC(=O)C(C(=O)C(C)(C)C)N2C(=O)NC(=C(C)C)C2=O)c1 (stereo unspecified)	178 to 179
COCOc1ccccc1OCBr	40 to 42
CCCc1nc2c(N)nc(C)c(C)c2n1CCCCN(O)C(=O)c1ccccc1	132 to 134
O=[N+]([O-])c1ccc(CCNCCc2ccc([N+](=O)[O-])cc2)cc1	86 to 91
O=C(Nc1nc(Cl)cc(Cl)n1)NS(=O)(=O)c1cccc2cccnc12	198 to 200
CC(O[Si](C)(C)C(C)(C)C)C1C(=O)NC1C1CCCC(OCCCl)C1O (stereo unspecified)	97 to 100
O=C(O)c1cc2cccc(Cl)c2s1	262 to 265
NC(=O)Cc1c(F)cccc1C(F)(F)F	172 to 174
C=CCOc1c(I)cc(C(=O)CCC(=O)c2cc(OC)c(OC)c(OC)c2)cc1OC	113 to 114
CCCCCCCCCCCCc1cc(CC(=O)Nc2c(OC)cc(OC)cc2OC)on1	107 to 109
CC(C)(C)C(=O)ON1C(C)(C)CC(OC(=O)CCCCCCCCC(=O)OC2CC(C)(C)N(OC(=O)C(C)(C)C)C(C)(C)C2)CC1(C)C	93 to 97
O=C(Nc1cc(Cl)ccn1)c1ccn2c1CSC2c1cccnc1 (stereo unspecified)	190
Cc1nc2cc(C(F)(F)F)ccc2n1NC(=O)c1ccc(Cl)c(S(N)(=O)=O)c1	193 to 195
NS(=O)(=O)c1cc(Br)ccc1F	153 to 154
CCCCCCCN(Cc1ccc(C(C)(C)C)cc1)C(Nc1ccc(F)cc1F)=C1C(=O)COC1=O	89 to 92
CCCCNC(=O)Nc1ccc(OC(=O)NCCCC)cc1C(=O)NCC1CCN(C(c2ccccc2)c2ccccc2)CC1	197 to 199
CC(C)S(=O)(=O)Nc1cccc2c3c([nH]c12)C(=O)CCC3	267 to 268
O=C(NC1(C2CC2)CC1)c1c(NC(=O)c2cc(Cl)nn2-c2ncccc2Cl)c(Cl)cc2cn[nH]c12	173 to 175
